Assay results published in patent US12295397B2, “Dietary peptides” (Diet4Life APS, priority 2015, dated 2025).
No end group written: not given here.

How the values were obtained:
pepsin = pepsin (Homo sapiens, UniProt P0DJD8); experiment: Pepsin digestion of meat, resistance of peptide to pepsin degradation; type: in vitro ADME; conditions: present in proteolytic digests
Procedure: Minced meat is diluted 1-10 times with distilled water, adjusted to pH 1-3 with hydrochloric acid, and incubated with 0.01-10% pepsin (w/w) at 4-40° C. for ½-12 h with adequate mixing. Insoluble material is removed by centrifugation at 100-1000×g for 3-30 min, and supernatant is neutralized with NaOH. Using sterile conditions, low molecular weight peptides in supernatant are recovered by tangential ultrafiltration at 4-40° C. for ½-12 h, and excess water is evaporated at 25-50° C. for up to 12 h. The concentrated dialysate is tested for bioactivity with cells and used for further purification by HPLC.

[1] = Stability of peptides in Fetal Bovine Serum, remaining activity read out in intestinal cells; type: in vitro ADME; conditions: fold more stable than NT(8-13)
Procedure: All peptides were incubated at 10^−5 M with Fetal Bovine Serum (FBS; final concentration of 66.7%) (Sigma Aldrich, Denmark) at 37° C. for 3 hours. The peptide degradation was terminated using 1 M phosphoric acid (final 0.4 M, pH ˜1.2) and neutralized to pH 7.2-7.4 with NaOH before testing activity in intestinal cells. As for small intestine homogenates, a zero degradation control was included for each peptide.
DC7-2, NT, DKPYIL (SEQ ID NO: 8) and NT-(8-13) (final concentration of 10^-6 M) were incubated either with FBS or with 270× diluted intestinal homogenate at 37° C. for various time points with shaking. Degradation was stopped with 1 M phosphoric acid and the samples were subsequently neutralized and immediately tested with intestinal cells as described above. Control for zero degradation was included for each peptide as above. […]
(§1) Notes for Tables 1) Stability in serum is expressed as fraction of peptide activity left after 10 min of incubation in serum at 37° C. compared with undigested sample as described in Examples. 2) Stability in intestine is expressed as % activity left after 30 min incubation in intestine homogenate at 37° C. as described in Examples.

[2] = Stability of peptides in small intestine homogenate, remaining activity read out in intestinal cells; type: in vitro ADME, mice; conditions: fold more stable than NT(8-13)
Procedure: Small intestines from 20 Swiss-Webster males were homogenized in 350 ml Dulbecco's phosphate-buffered saline (PBS) (pH 7.4) (ThermoFischer Scientific, Denmark) with a IKA® basic 18 Ultra-Turrax tissue homogenizer set a speed 5 followed by filtration using 100 μm nylon mesh filter. Protein concentration was 6 mg/ml using the bicinconinic acid assay (ThermoFischer Scientific, Denmark) and bovine serum albumin as standard. The intestine homogenate was diluted 10 times in HBSS containing 25 mM HEPES (pH 7.4), and further diluted 30×, 90×, 270×, 810× or 2430× before incubation with peptides. All solutions were prewarmed to 37° C. before mixing with peptide solutions.
Peptides were incubated at 10^−5 M with dilutions of small intestine homogenate at 37° C. for 90 minutes with shaking. Reactions were stopped by addition of 1 M phosphoric acid (final 0.4 M, pH ˜1.2). Each peptide incubation mix was then neutralized with NaOH to pH 7.2-7.4 and immediately tested for activity in intestinal cells. […]
as §1

Chain of pepsin (P0DJD8 63-388): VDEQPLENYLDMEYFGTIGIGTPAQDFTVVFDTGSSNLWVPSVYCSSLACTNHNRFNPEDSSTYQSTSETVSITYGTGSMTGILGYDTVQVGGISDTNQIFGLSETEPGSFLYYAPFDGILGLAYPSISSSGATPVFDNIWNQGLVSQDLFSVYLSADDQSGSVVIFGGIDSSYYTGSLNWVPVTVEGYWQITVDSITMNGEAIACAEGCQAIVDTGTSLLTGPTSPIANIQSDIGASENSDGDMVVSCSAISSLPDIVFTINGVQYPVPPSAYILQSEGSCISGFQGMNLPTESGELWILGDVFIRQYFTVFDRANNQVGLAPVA

Resistance to pepsin degradation (pepsin) | Stability in serum relative to neurotensin (8-13) RRPYIL [1] | Stability in intestine homogenate relative to neurotensin (8-13) RRPYIL [2] | Substance
resistant to pepsin degradation |  |  | ASDKPYIL [Peptide 36036, A SDKPYIL]
 | around 100 times | 100-1000 × | DKPYIL [Peptide 35978, D KPYIL]
